According to patent publication US9765092B2, “Tricyclic piperidine compounds” (ACTELION PHARMACEUTICALS LTD, priority 2013, dated 2017):

target: human TPH1 (Homo sapiens (Human), UniProt P17752); assay: Biochemical in vitro assay using fluorescence readout (TPH1 inhibition); conditions: full length human TPH1, 40 μM L-tryptophan, 15° C., 60 minutes, fluorescence at 540 nm; mean if determined several times
Sequence (P17752 whole entry): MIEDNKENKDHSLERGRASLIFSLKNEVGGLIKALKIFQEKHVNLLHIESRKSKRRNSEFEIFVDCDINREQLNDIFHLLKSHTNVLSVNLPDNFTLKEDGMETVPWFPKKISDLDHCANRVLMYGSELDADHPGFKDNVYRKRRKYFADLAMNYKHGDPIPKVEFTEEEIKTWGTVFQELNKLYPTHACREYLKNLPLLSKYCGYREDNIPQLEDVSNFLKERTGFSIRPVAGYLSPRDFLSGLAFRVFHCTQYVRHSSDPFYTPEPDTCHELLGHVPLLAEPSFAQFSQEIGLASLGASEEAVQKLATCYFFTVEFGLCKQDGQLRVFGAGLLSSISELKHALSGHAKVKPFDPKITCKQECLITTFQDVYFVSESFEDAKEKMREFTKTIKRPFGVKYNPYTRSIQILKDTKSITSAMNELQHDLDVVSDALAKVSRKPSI

**Q.** For `Cc1nn2c3c(nc2s1)CCN(C(=O)COc1ccc(N2CCOCC2)nc1Cl)C3c1ccc(CN(C)C)s1` (stereo not drawn) [Example 1.36.1, 2-((2-Chloro-6-morpholinopyridin-3-yl)oxy)-1-(5-(5-((dimethylamino)-methyl)thiophen-2-yl)-2-methyl-7,8-dihydro-[1,3,4]thiadiazolo[2′,3′:2,3]imidazo[4,5-c]pyridin-6(5H)-yl)-ethanone], which IC50 is on record?
**A.** Its IC50 is 384 nM.

**Q.** How did the IC50 turn out when `Cc1nn2c3c(nc2s1)CCN(C(=O)COc1ccc(N2CC(F)(F)C2)cc1Cl)C3c1ccc(Cl)cc1F` (stereo not drawn) [Example 1.4.29, 1-(5-(4-Chloro-2-fluorophenyl)-2-methyl-7,8-dihydro-[1,3,4]thiadiazolo[2′,3′:2,3]imidazo[4,5-c]pyridin-6(5H)-yl)-2-(2-chloro-4-(3,3-difluoroazetidin-1-yl)phe-noxy)ethanone] was run?
**A.** The IC50 was 6 nM.

**Q.** `Cc1nn2c3c(nc2s1)CCN(C(=O)COc1ccc(N2C(C)CCC2C)nc1Cl)C3c1ccc(Cl)cc1F` (stereo not drawn) [Example 1.4.15, 1-(5-(4-chloro-2-fluorophenyl)-2-methyl-7,8-dihydro-[1,3,4]thiadiazolo[2′,3′:2,3]imidazo[4,5-c]pyridin-6(5H)-yl)-2-((2-chloro-6-(2,5-dimethylpyrrolidin-1-yl)pyridin-3-yl)oxy)ethanone] was tested. Which IC50 did it give?
**A.** The IC50 was 6 nM.

same assay, conditions: human TPH1, fluorescence readout

**Q.** How did the IC50 turn out when `Cc1nn2c3c(nc2s1)CCN(C(=O)COc1ccc(N2CC(F)(F)C2)nc1Cl)C3c1ncc(Cl)cc1F` (stereo not drawn) [Example 1.33.2, 1-(5-(5-chloro-3-fluoropyridin-2-yl)-2-methyl-7,8-dihydro-[1,3,4]thiadiazolo[2′,3′:2,3]imidazo[4,5-c]pyridin-6(5H)-yl)-2-((2-chloro-6-(3,3-difluoroazetidin-1-yl)pyridin-3-yl)oxy)ethanone] was run?
**A.** Its IC50 is 4 nM.

**Q.** With `Cc1nn2c3c(nc2s1)CCN(C(=O)COc1ccc(N(C)CC(F)(F)F)nc1Cl)C3c1ccc(Cl)cc1F` (stereo not drawn) [Example 1.4.38, 1-(5-(4-chloro-2-fluorophenyl)-2-methyl-7,8-dihydro-[1,3,4]thiadiazolo[2′,3′:2,3]imidazo[4,5-c]pyridin-6(5H)-yl)-2-((2-chloro-6-(methyl(2,2,2-trifluoroethyl)amino)pyridin-3-yl)oxy)ethanone] as the molecule, how does the IC50 read?
**A.** Its IC50 is 3 nM.

**Q.** How did the IC50 turn out when `CCc1nc(NS(C)(=O)=O)ccc1OCC(=O)N1CCc2nc3sc(CF)nn3c2C1c1ccc(Cl)cc1F` (stereo not drawn) [Example 7.1.2, N-(5-(2-(5-(4-chloro-2-fluorophenyl)-2-(fluoromethyl)-7,8-dihydro-[1,3,4]thiadiazolo[2′,3′:2,3]imidazo[4,5-c]pyridin-6(5H)-yl)-2-oxoethoxy)-6-ethylpyridin-2-yl)methanesulfonamide] was run?
**A.** Its IC50 is 8 nM.

**Q.** `Cc1nn2c3c(nc2s1)CCN(C(=O)COc1ccc(C#N)nc1Cl)C3c1ccc(Cl)cc1F` (stereo not drawn) [Example 1.4.9, 6-chloro-5-(2-(5-(4-chloro-2-fluorophenyl)-2-methyl-7,8-dihydro-[1,3,4]thiadiazolo[2′,3′:2,3]imidazo[4,5-c]pyridin-6(5H)-yl)-2-oxoethoxy)picolinonitrile] was tested. Which IC50 did it give?
**A.** The IC50 was 36 nM.

**Q.** Which IC50 does the source give for `Cc1nn2c3c(nc2s1)CCN(C(=O)COc1ccc(C(N)=O)nc1Cl)C3c1ccc(Cl)cc1F` (stereo not drawn) [Example 1.4.19, 6-chloro-5-(2-(5-(4-chloro-2-fluorophenyl)-2-methyl-7,8-dihydro-[1,3,4]thiadiazolo[2′,3′:2,3]imidazo[4,5-c]pyridin-6(5H)-yl)-2-oxoethoxy)picolinamide] here?
**A.** The IC50 was 5 nM.

**Q.** With `CCc1nc(NS(C)(=O)=O)ccc1OCC(=O)N1CCc2nc3sc(C(F)(F)F)nn3c2C1c1sc(C)nc1C` (stereo not drawn) [Example 5.4.2, N-(5-(2-(5-(2,4-dimethylthiazol-5-yl)-2-(trifluoromethyl)-7,8-dihydro-[1,3,4]thiadiazolo[2′,3′:2,3]imidazo[4,5-c]pyridin-6(5H)-yl)-2-oxoethoxy)-6-ethylpyridin-2-yl)methanesulfonamide] as the molecule, how does the IC50 read?
**A.** The IC50 was 27 nM.

**Q.** How did the IC50 turn out when `Cc1nn2c3c(nc2s1)CCN(C(=O)COc1ccc(NS(C)(=O)=O)nc1Cl)C3c1ccc(C(C)(C)O)cc1F` (stereo not drawn) [Example 1.80.1, N-(6-chloro-5-(2-(5-(2-fluoro-4-(2-hydroxypropan-2-yl)phenyl)-2-methyl-7,8-dihydro-[1,3,4]thiadiazolo[2′,3′:2,3]imidazo[4,5-c]pyridin-6(5H)-yl)-2-oxoethoxy)pyridin-2-yl)methanesulfonamide] was run?
**A.** Its IC50 is 98 nM.

**Q.** Which IC50 does the source give for `Cc1cnc(C2c3c(nc4sc(C)nn34)CCN2C(=O)COc2ccc(N3CCOCC3)nc2Cl)c(F)c1` (stereo not drawn) [Example 1.31.2, 2-((2-chloro-6-morpholinopyridin-3-yl)oxy)-1-(5-(3-fluoro-5-methylpyridin-2-yl)-2-methyl-7,8-dihydro-[1,3,4]thiadiazolo [2′,3′:2,3]imidazo[4,5-c]pyridin-6(5H)-yl)ethanone] here?
**A.** The IC50 was 5 nM.

**Q.** For `CCN(CC)C(=O)c1cc(F)c(C2c3c(nc4sc(C)nn34)CCN2C(=O)COc2ccc(NS(C)(=O)=O)nc2Cl)s1` (stereo not drawn) [Example 1.64.1, 5-(6-(2-((2-chloro-6-(methylsulfonamido)pyridin-3-yl)oxy)acetyl)-2-methyl-5,6,7,8-tetrahydro-[1,3,4]thiadiazolo [2′,3′:2,3]imidazo[4,5-c]pyridin-5-yl)-N,N-diethyl-4-fluorothiophene-2-carboxamide], which IC50 is on record?
**A.** The IC50 was 21 nM.

**Q.** Which IC50 does the source give for `Cc1ccc(OCC(=O)N2CCc3nc4sccn4c3C2c2cccnc2F)cc1` (stereo not drawn) [Example 6.2.3, 1-(5-(2-fluoropyridin-3-yl)-7,8-dihydrothiazolo[2′,3′:2,3]-imidazo[4,5-c]pyridin-6(5H)-yl)-2-(p-tolyloxy)ethanone] here?
**A.** Its IC50 is 52 nM.

**Q.** Which IC50 does the source give for `CCc1ncccc1OCC(=O)N1CCc2nc3sc(C)nn3c2C1c1cc(CN(C)C)cs1` (stereo not drawn) [Example 1.8.2, 1-(5-(4-((dimethylamino)methyl)thiophen-2-yl)-2-methyl-7,8-dihydro-[1,3,4]thiadiazolo[2′,3′:2,3]imidazo[4,5-c]pyridin-6(5H)-yl)-2-((2-ethylpyridin-3-yl)oxy)ethanone] here?
**A.** Its IC50 is 140 nM.

**Q.** For `Cc1nn2c3c(nc2s1)CCN(C(=O)COc1ccc(N2CCOCC2)cc1Cl)C3c1c(C)noc1C` (stereo not drawn) [Example 1.5.1, 2-(2-chloro-4-morpholinophenoxy)-1-(5-(3,5-dimethylisoxazol-4-yl)-2-methyl-7,8-dihydro[1,3,4]thiadiazolo[2′,3′:2,3]imidazo[4,5-c]pyridin-6(5H)-yl)ethanone], which IC50 is on record?
**A.** Its IC50 is 22 nM.

**Q.** Which IC50 does the source give for `CCc1nc(NS(C)(=O)=O)ccc1OCC(=O)N1CCc2nc3sc(C)nn3c2C1c1sc(C)nc1C` (stereo not drawn) [Example 1.68.7, N-(5-(2-(5-(2,4-dimethylthiazol-5-yl)-2-methyl-7,8-dihydro-[1,3,4]thiadiazolo[2′,3′:2,3]imidazo[4,5-c]-pyridin-6(5H)-yl)-2-oxoethoxy)-6-ethylpyridin-2-yl)methanesulfonamide] here?
**A.** Its IC50 is 11 nM.

**Q.** For `Cc1cnc(C2c3c(nc4sc(C)nn34)CCN2C(=O)COc2ccc(NS(C)(=O)=O)cc2Cl)c(F)c1` (stereo not drawn) [Example 1.31.10, N-(3-chloro-4-(2-(5-(3-fluoro-5-methylpyridin-2-yl)-2-methyl-7,8-dihydro-[1,3,4]thiadiazolo[2′,3′:2,3]imidazo[4,5-c]pyridin-6(5H)-yl)-2-oxoethoxy)phenyl)methanesulfonamide], which IC50 is on record?
**A.** The IC50 was 11 nM.

**Q.** Which IC50 does the source give for `COC(C)(C)c1ccc(C2c3c(nc4sc(C)nn34)CCN2C(=O)COc2ccc(NS(C)(=O)=O)nc2Cl)c(F)c1` (stereo not drawn) [Example 1.81.2, N-(6-chloro-5-(2-(5-(2-fluoro-4-(2-methoxypropan-2-yl)phenyl)-2-methyl-7,8-dihydro-[1,3,4]thiadiazolo[2′,3′:2,3]imidazo[4,5-c]pyridin-6(5H)-yl)-2-oxoethoxy)pyridin-2-yl)methanesulfonamide] here?
**A.** Its IC50 is 132 nM.
